In PubChem BioAssay AID2060493 (Molecular Pharmacology Branch, DTP, NCI, 2025):

Test system: 616215-338-R-J1-PDC tumor spheroids, viability
Assay: Anticancer human tumor 616215-338-R-J1-PDC patient-derived colon adenocarcinoma cell line growth inhibition [GQUAD]
Conditions: spheroids with HUVEC and MSC; for IC50: curve of first compound; for viability, T/C: stronger effect = lower value
How it was run: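 Multi-cell-type spheroids of tumor cells with HUVEC and mesenchymal stem cells, treated with drug combinations. Concentrations descend in half-log steps from near clinical Cmax, or from 10 microM where Cmax is unknown; viability read-out.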

[1] = second compound 0.0316 µM, first compound 0.0316 µM
[2] = second compound 0.0316 µM, first compound 0.1 µM
[3] = second compound 0.0316 µM, first compound 0.316 µM
[4] = second compound 0.0316 µM, first compound 1 µM
[5] = second compound 0.0316 µM, first compound 3.16 µM
[6] = second compound 0.0316 µM, first compound 10 µM
[7] = second compound 0.1 µM, first compound 0.0316 µM
[8] = second compound 0.1 µM, first compound 0.1 µM
[9] = second compound 0.1 µM, first compound 0.316 µM
[10] = second compound 0.1 µM, first compound 1 µM
[11] = second compound 0.1 µM, first compound 3.16 µM
[12] = second compound 0.1 µM, first compound 10 µM
[13] = second compound 0.316 µM, first compound 0.0316 µM
[14] = second compound 0.316 µM, first compound 0.1 µM
[15] = second compound 0.316 µM, first compound 0.316 µM
[16] = second compound 0.316 µM, first compound 1 µM
[17] = second compound 0.316 µM, first compound 3.16 µM
[18] = second compound 0.316 µM, first compound 10 µM
[19] = second compound 1 µM, first compound 0.0316 µM
[20] = second compound 1 µM, first compound 0.1 µM
[21] = second compound 1 µM, first compound 0.316 µM
[22] = second compound 1 µM, first compound 1 µM
[23] = second compound 1 µM, first compound 3.16 µM
[24] = second compound 1 µM, first compound 10 µM
[25] = second compound 3.16 µM, first compound 0.0316 µM
[26] = second compound 3.16 µM, first compound 0.1 µM
[27] = second compound 3.16 µM, first compound 0.316 µM
[28] = second compound 3.16 µM, first compound 1 µM
[29] = second compound 3.16 µM, first compound 3.16 µM
[30] = second compound 3.16 µM, first compound 10 µM
[31] = second compound 10 µM, first compound 0.0316 µM
[32] = second compound 10 µM, first compound 0.1 µM
[33] = second compound 10 µM, first compound 0.316 µM
[34] = second compound 10 µM, first compound 1 µM
[35] = second compound 10 µM, first compound 3.16 µM
[36] = second compound 10 µM, first compound 10 µM
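Note: spheroids exposed to agents for 7 days before readout.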
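Throughout, for viability, T/C: percent viability relative to DMSO vehicle control wells taken as 100%.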

C=CCn1c(=O)c2cnc(Nc3ccc(N4CCN(C)CC4)cc3)nc2n1-c1cccc(C(C)(C)O)n1 + Cc1cnc(CNC(=O)c2c(=O)c3ccc(N4CCCN(C)CC4)nc3n3c2sc2ccccc23)cn1
IC50 (second compound 0.0316 µM): 0.255 µM | IC50 (second compound 0.1 µM): 0.131 µM | IC50 (second compound 0.316 µM): < 0.0316 µM | IC50 (second compound 1 µM): < 0.0316 µM | IC50 (second compound 3.16 µM): < 0.0316 µM | IC50 (second compound 10 µM): < 0.0316 µM | viability, T/C [1]: 110% | viability, T/C [2]: 71.4% | viability, T/C [3]: 44.4% | viability, T/C [4]: 32.2% | viability, T/C [5]: 23.4% | viability, T/C [6]: 21.9% | viability, T/C [7]: 57.2% | viability, T/C [8]: 55% | viability, T/C [9]: 40.1% | viability, T/C [10]: 38.3% | viability, T/C [11]: 24.4% | viability, T/C [12]: 17.8% | viability, T/C [13]: 44.1% | viability, T/C [14]: 39.4% | viability, T/C [15]: 30% | viability, T/C [16]: 30.2% | viability, T/C [17]: 27.7% | viability, T/C [18]: 21% | viability, T/C [19]: 29.8% | viability, T/C [20]: 30.8% | viability, T/C [21]: 21% | viability, T/C [22]: 21.9% | viability, T/C [23]: 25.2% | viability, T/C [24]: 17.3% | viability, T/C [25]: 31.2% | viability, T/C [26]: 31.8% | viability, T/C [27]: 19.8% | viability, T/C [28]: 17.5% | viability, T/C [29]: 12.2% | viability, T/C [30]: 16.8% | viability, T/C [31]: 25.1% | viability, T/C [32]: 26.2% | viability, T/C [33]: 13.2% | viability, T/C [34]: 15.5% | viability, T/C [35]: 16.8% | viability, T/C [36]: 15.5%

CC(C)(O)C1CCC(Nc2ccc3ncc(-c4cccc(C(F)(F)F)c4)n3n2)CC1 (stereo not drawn) + Cc1cnc(CNC(=O)c2c(=O)c3ccc(N4CCCN(C)CC4)nc3n3c2sc2ccccc23)cn1
IC50 (second compound 0.0316 µM): 0.571 µM | IC50 (second compound 0.1 µM): 0.352 µM | IC50 (second compound 0.316 µM): < 0.0316 µM | IC50 (second compound 1 µM): < 0.0316 µM | IC50 (second compound 3.16 µM): < 0.0316 µM | IC50 (second compound 10 µM): < 0.0316 µM | viability, T/C [1]: 96.8% | viability, T/C [2]: 86.9% | viability, T/C [3]: 82.1% | viability, T/C [4]: 19.8% | viability, T/C [5]: 1.65% | viability, T/C [6]: 2.16% | viability, T/C [7]: 67.2% | viability, T/C [8]: 73.2% | viability, T/C [9]: 53.1% | viability, T/C [10]: 13.9% | viability, T/C [11]: 4.15% | viability, T/C [12]: 1.36% | viability, T/C [13]: 36.8% | viability, T/C [14]: 50.2% | viability, T/C [15]: 37.3% | viability, T/C [16]: 14.8% | viability, T/C [17]: 0.03% | viability, T/C [18]: 2.26% | viability, T/C [19]: 32.5% | viability, T/C [20]: 32.1% | viability, T/C [21]: 28.7% | viability, T/C [22]: 13.3% | viability, T/C [23]: 0.05% | viability, T/C [24]: 0.06% | viability, T/C [25]: 20.9% | viability, T/C [26]: 24.2% | viability, T/C [27]: 29.9% | viability, T/C [28]: 3.87% | viability, T/C [29]: 0.1% | viability, T/C [30]: 0.12% | viability, T/C [31]: 19.6% | viability, T/C [32]: 24.7% | viability, T/C [33]: 27.8% | viability, T/C [34]: 0.18% | viability, T/C [35]: 0.22% | viability, T/C [36]: 0.2%

COc1ncnc(C2CC2)c1-c1ncc2cnn(Cc3ccc(-c4nc(C(F)(F)F)cn4C(C)C)cc3)c2n1 + Cc1cnc(CNC(=O)c2c(=O)c3ccc(N4CCCN(C)CC4)nc3n3c2sc2ccccc23)cn1
IC50 (second compound 0.0316 µM): > 10 µM | IC50 (second compound 0.1 µM): > 10 µM | IC50 (second compound 0.316 µM): < 0.0316 µM | IC50 (second compound 1 µM): < 0.0316 µM | IC50 (second compound 3.16 µM): < 0.0316 µM | IC50 (second compound 10 µM): < 0.0316 µM | viability, T/C [1]: 108% | viability, T/C [2]: 98.7% | viability, T/C [3]: 113% | viability, T/C [4]: 97.2% | viability, T/C [5]: 108% | viability, T/C [6]: 100% | viability, T/C [7]: 70.8% | viability, T/C [8]: 72.2% | viability, T/C [9]: 62.1% | viability, T/C [10]: 57.5% | viability, T/C [11]: 64.2% | viability, T/C [12]: 58.3% | viability, T/C [13]: 48.9% | viability, T/C [14]: 46% | viability, T/C [15]: 34.3% | viability, T/C [16]: 34.8% | viability, T/C [17]: 41.4% | viability, T/C [18]: 66.7% | viability, T/C [19]: 22.7% | viability, T/C [20]: 35.4% | viability, T/C [21]: 36.1% | viability, T/C [22]: 32.6% | viability, T/C [23]: 34.3% | viability, T/C [24]: 31.3% | viability, T/C [25]: 23% | viability, T/C [26]: 28.7% | viability, T/C [27]: 22.4% | viability, T/C [28]: 26.7% | viability, T/C [29]: 40.3% | viability, T/C [30]: 27.1% | viability, T/C [31]: 13.8% | viability, T/C [32]: 28.4% | viability, T/C [33]: 21.3% | viability, T/C [34]: 25.5% | viability, T/C [35]: 35.1% | viability, T/C [36]: 22.1%

Cc1[nH]c2ccccc2c1CCNCc1ccc(/C=C/C(=O)NO)cc1 + Cc1cnc(CNC(=O)c2c(=O)c3ccc(N4CCCN(C)CC4)nc3n3c2sc2ccccc23)cn1
IC50 (second compound 0.0316 µM): 0.0835 µM | IC50 (second compound 0.1 µM): 0.11 µM | IC50 (second compound 0.316 µM): < 0.000999 µM | IC50 (second compound 1 µM): < 0.000999 µM | IC50 (second compound 3.16 µM): < 0.000999 µM | IC50 (second compound 10 µM): < 0.000999 µM | viability, T/C (second compound 0.0316 µM, first compound 0.000999 µM): 98.6% | viability, T/C (second compound 0.0316 µM, first compound 0.00316 µM): 99.3% | viability, T/C (second compound 0.0316 µM, first compound 0.00999 µM): 101% | viability, T/C [1]: 105% | viability, T/C (second compound 0.0316 µM, first compound 0.0999 µM): 40.5% | viability, T/C [3]: 24.4% | viability, T/C (second compound 0.1 µM, first compound 0.000999 µM): 59.6% | viability, T/C (second compound 0.1 µM, first compound 0.00316 µM): 90% | viability, T/C (second compound 0.1 µM, first compound 0.00999 µM): 60.8% | viability, T/C [7]: 66.6% | viability, T/C (second compound 0.1 µM, first compound 0.0999 µM): 54.4% | viability, T/C [9]: 6.92% | viability, T/C (second compound 0.316 µM, first compound 0.000999 µM): 40.8% | viability, T/C (second compound 0.316 µM, first compound 0.00316 µM): 38.2% | viability, T/C (second compound 0.316 µM, first compound 0.00999 µM): 38.2% | viability, T/C [13]: 47.9% | viability, T/C (second compound 0.316 µM, first compound 0.0999 µM): 39.1% | viability, T/C [15]: 0.77% | viability, T/C (second compound 1 µM, first compound 0.000999 µM): 36.5% | viability, T/C (second compound 1 µM, first compound 0.00316 µM): 23.8% | viability, T/C (second compound 1 µM, first compound 0.00999 µM): 28.2% | viability, T/C [19]: 23.2% | viability, T/C (second compound 1 µM, first compound 0.0999 µM): 13.7% | viability, T/C [21]: 0.06% | viability, T/C (second compound 3.16 µM, first compound 0.000999 µM): 27.9% | viability, T/C (second compound 3.16 µM, first compound 0.00316 µM): 21.8% | viability, T/C (second compound 3.16 µM, first compound 0.00999 µM): 24.9% | viability, T/C [25]: 26.6% | viability, T/C (second compound 3.16 µM, first compound 0.0999 µM): 0.75% | viability, T/C [27]: 0.11% | viability, T/C (second compound 10 µM, first compound 0.000999 µM): 24.7% | viability, T/C (second compound 10 µM, first compound 0.00316 µM): 34.2% | viability, T/C (second compound 10 µM, first compound 0.00999 µM): 15.5% | viability, T/C [31]: 17.7% | viability, T/C (second compound 10 µM, first compound 0.0999 µM): 0.25% | viability, T/C [33]: 0.21%
